Laboratory results published in patent publication US20240299542A1, “NATURAL KILLER CELLS ENGINEERED TO REDUCE OR ELIMINATE CBL-B AND USES THEREOF” (City of Hope, priority 2021, published 2024).

Tests used:
Cbl-b [1] = test: Cbl-b protein by immunoblot after JAK or AKT inhibitor pretreatment and IL-15/IL-2 activation of primary NK cells; assay type: cell-based, human; settings: 90 min pretreatment at various concentrations, then IL-15 (10 ng/ml) 24 h, vs vehicle control
Experimental: FIGS. 2A-2E depict the results of a study showing that JAK-STAT and AKT pathways mediate upregulation of Cbl-b in NK cells. (FIG. 2A) Primary human NK cells were pretreated with the JAK3 inhibitor CP-690550 and the JAK1/2 inhibitor AZD1480 at various concentrations for 90 min prior to a 24 h activation by IL15 (10 ng/ml). NK cells were then harvested for quantification of Cbl-b protein expression by immunoblot analysis. Data are representative of 6 donors performed in a similar fashion. Densitometric quantification assessing the ratio of the Cbl-b protein to β-actin protein levels for 6 donors is summarized in (FIG. 2B) and (FIG. 2C). […] Data are representative of 5 donors performed in a similar fashion. Densitometric quantification assessing the ratio of the Cbl-b protein levels to β-actin protein levels for 5 donors is summarized in (FIG. 2E). *P<0.05, **P<0.01, ***P<0.001 by One-way ANOVA or Student's two-tailed paired t-test. Data are presented as mean±SEM.
(§1) Immunoblotting. Cells were harvested and suspended in RIPA lysis buffer (Thermo Fisher Scientific) on ice for 20 minutes. Equal amount of protein was resolved by 5-15% Criterion TGX gel (Bio-Rad) and then transferred onto a Nitrocellulose (NC) or PVDF membrane (Thermo Fisher Scientific). The membrane was incubated with a primary antibody at 4° C. overnight and an IRDye secondary antibody (Li-COR Biosciences) for 1 hour at room temperature. The immunoblots were visualized with Odyssey CLx Imager (Li-COR Biosciences). Densitometric analysis was performed to quantify intensity of gel bands with Image J (National Institutes of Health).
(§2) Since IL-15 utilizes select JAK-STAT proteins to initiate cellular activation, we pretreated primary NK cells with the JAK3 inhibitor CP-690550 (22) or the JAK1/2 inhibitor AZD1480 (23) in increasing concentrations prior to IL-15 stimulation then Cbl-b expression level was evaluated. […] As K562 cells were also able to induce expression of Cbl-b in primary human NK cells (FIG. 1B), we repeated the inhibitor experiments under the K562 cell stimulation.

Cbl-b [2] = test: Cbl-b protein by immunoblot after inhibitor pretreatment and K562 co-culture of primary NK cells; assay type: cell-based, human; settings: 10 uM, 90 min pretreatment, 24 h co-culture with K562 (E/T=10:1), vs vehicle control
Experimental: FIG. 7A Primary NK cells were pretreated with AZD1480 (10 uM), CP-690550 (10 uM) or Afuresertib (10 uM) for 90 min prior to a 24 h cocultured with K562 cells (E/T=10:1). The immunoblot data are representative of 3 donors in a similar fashion. Densitometric quantification assessing the ratio of Cbl-b protein levels to β-actin protein levels for 3 donors is summarized in FIG. 7B. *P<0.05, **P<0.01; ns, not significant. Data are presented as mean±SEM.
as §1, §2

IFN-γ = test: Intracellular IFN-γ flow cytometry of NK cells pretreated with Mertk inhibitors; assay type: cell-based, human; settings: for percentage of intracellular IFN-γ+ cells: 5 uM, 90 min pretreatment, then IL-15 (10 ng/ml) 24 h; for IFN-γ level lower than control with no inhibitor: in the presence of IL-15
Experimental: (§3) FIGS. 5A-5D depict the results of a study showing that Cbl-b interacts with and regulates phosphorylation of Mertk in primary human NK cells. (FIG. 5A) Representative intracellular flow cytometric analysis of the TAM family receptors expression in primary human NK cells. Summarized data are shown from 6 donors. IgG1 is the isotype for Tyro3 and Axl, while IgG2 for Mertk. (FIG. 5B) The level of Mertk phosphorylation and Cbl-b in Cbl-b siRNA- or Scr siRNA-transduced primary human NK was measured by immunoblot analysis. Data presented are representative of five independent experiments. […] Data presented are representative of 4 donors performed in a similar fashion and are summarized in the panel below the representative flow dot plots. (FIG. 5D) Primary NK cells were pretreated with the Mertk inhibitors UNC2550 or UNC2881 (5 uM) for 90 min prior to 30 min activation by IL-15 (10 ng/ml). Data presented are representative of 4 donors performed in a similar fashion. Scr-scrambled; *P<0.05; ns, not significant. Data presented as mean±SEM.
Flow cytometry. To determine protein cell surface expression via flow cytometry, cells were stained with monoclonal antibodies at room temperature for 20 minutes and washed with FACS buffer prior to analysis using a Fortessa X-20 flow cytometer (BD Biosciences). For IFN-γ intracellular flow cytometric analysis, […] GolgiPlug (BD Biosciences) was added for 4 h before cell harvest; cells were then permeabilized and fixed using a Cytofix/Cytoperm Fixation/Permeabilization Solution Kit (BD Biosciences), followed by analysis with a Fortessa X-20 flow cytometer. Intracellular flow cytometric analysis of Mertk was performed similarly except that GolgiPlug was not added. Data was analyzed by using Flowjo V10 software (Tree Star, Ashland, OR, USA).
The TAM receptor family consists of Tyro3, Axl and Mertk, all of which are expressed in mature mouse NK cells (25) and are molecular substrates for Cbl-b ubiquitylation both in vitro and in vivo (17). To investigate the possible relationship between Cbl-b and the TAM receptor family in primary human NK cells, we detected the expression of the three TAM receptor members in NK cells. […] However, the level of total mertk is low in human NK cells (FIG. 10B), preventing us to characterize the mechanism associated with the p-Mertk regulation by Cbl-b. Next, primary human NK cells were pretreated with or without Mertk inhibitors (UNC2550 or UNC2881), followed by IL-15 stimulation.

p-STAT5 = p-STAT5 by immunoblot in IL-15-activated NK cells pretreated with Mertk inhibitors; assay type: cell-based, human; settings: 5 uM, 90 min pretreatment, then IL-15 (10 ng/ml) 30 min, vs no inhibitor
Experimental: as §3, with “(FIG. 5D) Primary NK cells were pretreated with the Mertk inhibitors UNC2550 or UNC2881 (5 uM) for 90 min prior to 30 min activation by IL-15 (10 ng/ml). Data presented are representative of 4 donors performed in a similar fashion. Scr-scrambled; *P<0.05; ns, not significant. Data presented as mean±SEM.” left out
Immunoblotting. […] Densitometric analysis was performed to quantify intensity of gel bands with Image J (National Institutes of Health).
The TAM receptor family consists of Tyro3, Axl and Mertk, all of which are expressed in mature mouse NK cells (25) and are molecular substrates for Cbl-b ubiquitylation both in vitro and in vivo (17). To investigate the possible relationship between Cbl-b and the TAM receptor family in primary human NK cells, we detected the expression of the three TAM receptor members in NK cells. […]

Cbl-b [3] = test: Cbl-b protein by immunoblot after stimulation of primary human NK cells with cytokines or activating antibody; assay type: cell-based
Experimental: (FIG. 1B) Enriched primary human NK cells were co-cultured with the K562 myeloid leukemia cell line (E/T ratio=10:1) for 24 h followed by immunoblot analysis. Summary data are from three independent experiments. (FIG. 1C) Primary human NK cells were treated with different concentrations of IL-15 for 24 h followed by immunoblot analysis (n=5 donors). (FIG. 1D) Equal numbers of purified CD56^+ human NK cells, CD56^bright NK cells and CD56^dim NK cells were sorted from peripheral blood mononuclear cells isolated by Ficoll, cultured and stimulated with IL-15 (20 ng/ml for 24 h) followed by immunoblot analysis. The data are representative of three independent experiments. Med, medium only; *P<0.05, **P<0.01 by two-tailed unpaired t-test or One-way ANOVA; ns, not significant. Data are presented as mean±SEM.
FIG. 6A Enriched primary human NK cells were cocultured with Molm-13 or MV4-11 leukemia cell lines (E/T ratio=10:1) for 24 h prior to assessment of Cbl-b by immunoblot analysis. […] FIG. 6B Enriched primary human NK cells were cultured overnight with an anti-NKG2D activating antibody (clone 1D11) (10 μg/ml) or mouse IgG (10 μg/ml) as control prior to assessment of Cbl-b by immunoblot analysis. […] Data are shown summarizes four independent experiments. […] Data are shown summarizes five independent experiments. FIG. 6E The expression of Cbl-b was assessed by qRT-PCR after primary human NK cells were incubated with K562 cells (E/T ratio=10:1) for 24 h. Data are shown summarizes five independent experiments. *P<0.05, **P<0.01, compared to the shortest time point. Data are presented as mean±SEM.
as §1
We assessed the expression of Cbl-b protein in primary human NK cells enriched from the blood of healthy donors in response to 24-hour stimulation by different cytokines. […] Since certain tumor cells can trigger NK cell activation, we co-cultured NK cells for 24 h with different tumor cell lines in order to assess this effect on the expression of Cbl-b.

Cbl-b [4] = test: Cbl-b mRNA by qRT-PCR after IL-15 or IL-2 treatment of primary human NK cells; assay type: cell-based; settings: IL-15 (10 ng/ml) or IL-2 (150 IU/ml)

| Compound | percentage of intracellular IFN-γ+ cells (IFN-γ) | IFN-γ level lower than control with no inhibitor (IFN-γ) | level of p-STAT5 (p-STAT5) | other results |
| --- | --- | --- | --- | --- |
| C[C@@H]1CCN(C(=O)CC#N)C[C@@H]1N(C)c1ncnc2[nH]ccc12 [CP-690550] | – | – | – | expression of Cbl-b protein after inhibitor pretreatment (Cbl-b [1]): significant decrease; Cbl-b expression after inhibitor pretreatment under K562 stimulation (Cbl-b [2]): only the AKT1/2/3 inhibitor Afuresertib rather than either of the two JAK inhibitors |
| CCCCNc1ncc(C(=O)NCc2ccc(-n3ccnc3)cc2)c(NC2CCC(O)CC2)n1 (stereo not drawn) [UNC2881] | 5.49% | approximately 3 fold | decreased | – |
| IL-15: Recombinant human IL-15 protein obtained from National Institutes of Health | – | – | – | dose response of Cbl-b protein (Cbl-b [3]; different concentrations of IL-15, 24 h): did not find evidence of a dose response change; expression of Cbl-b protein (ratio to β-actin) (Cbl-b [3]; primary human NK cells, 24 h cytokine stimulation, compared to resting NK cells without cytokines): induced an increase in the expression of Cbl-b; upregulation of Cbl-b mRNA at 24 h post stimulation (Cbl-b [4]; 24 h): sustained; time of peak Cbl-b mRNA (Cbl-b [4]; compared to unstimulated NK cells): 4 h |
| UNC2550 | 5.49% | approximately 3 fold | decreased | – |
